In US9737616B2, “Compounds and methods for the treatment of ERB B2/NEU positive diseases” (Bio-Thera Solutions, Ltd., Co., priority 2012, dated 2017):

Legend:
tubulin = assay: HTS-Tubulin Polymerization Assay Kit, tubulin polymerization in vitro; format: biochemical; conditions: for inhibition of tubulin polymerization compared with the PBS buffer: Example 6, 1 μM stock of test substance, 4 mg/mL tubulin, 37° C., 405 nm
Method: The effect of 3AA-MDC, 206-3AA-MDC and the metabolites (Cys-3AA-MDC and Lys-mcc-MDC) of prodrug antibody maytansinoid conjugates on the tubulin polymerization in vitro was assessed by HTS-Tubulin Polymerization Assay Kit (BK004P, Cytoskeleton, Inc., USA). According to the instruction of kit, pre-warm the 96-well plate to 37° C. for 30 min prior to starting the assay. At the same time, the spectrophotometer (SpectraMax, Molecular Devices, USA) was set as follow: wavelength, 405 nm; temperature, 37° C.; Kinetic, 31 cycles of 1 reading per minute. Make cold G-PEM buffer (990 μL General Tubulin Buffer+10 μL GTP Stock) and keep it on ice. Prepare 4 mg/mL tubulin, 1 μM L-3AA-MDC (N2′-deacetyl-N2′-(6-maleimido-1-oxo-hexyl)maytansine), 1 μM 206-3AA-MDC, 1 μM cys-3AA-MDC, 1 μM lys-mcc-MDC, 100 μM Paclitaxel, and 100 μM Nocodazole. Add 10 μL G-PEM, 3AA-MDC, 206-3AA-MDC, cys-3AA-MDC, lys-mcc-MDC, Paclitaxel, Nocodazole into the wells, and then add 100 μL 4 mg/ml tubulin to each well. Immediately place the plate into the spectrophotometer and start recording using the kinetic setup described above. […] Nocodazole, the tubulin polymerization inhibitor, was set as a negative control. The metabolite Cys-3AA-MDC was prepared by reaction of 3AA-MDC with cysteine under the base DIEA in CH2Cl2. […] The metabolite Lys-MCC-MDC was prepared by reaction of SMCC-MDC with lysine under the base DIEA in DMF.
The effect of 3AA-MDC and related metabolites on the tubulin polymerization in vitro was assessed by HTS-Tubulin Polymerization Assay Kit (BK004P, Cytoskeleton, Inc., USA). According to the instruction of kit, pre-warm the 96-well plate to 37° C. for 30 min prior to starting the assay. At the same time, the spectrophotometer (SpectraMax, Molecular Devices, USA) was set as follow: wavelength, 405 nm; temperature, 37° C.; Kinetic, 31 cycles of 1 reading per minute. Make cold G-PEM buffer (990 μL General Tubulin Buffer+10 μL GTP Stock) and keep it on ice. Prepare 4 mg/ml tubulin, 200 nM L-3AA-MDC (N2′-deacetyl-N2′-(6-maleimido-1-oxo-hexyl)maytansine), or related compounds cys-3AA-MDC, or lys-mcc-MDC, 100 μM Paclitaxel, 100 μM Nocodazole, and 1 μM 206-3AA-MDC (3AA-MDC-antibody). Add 10 μL G-PEM, 3AA-MDC, Paclitaxel, Nocodazole and 206-3AA-MDC or related metabolites into the wells, and then add 100 μL 4 mg/ml tubulin to each well. Immediately place the plate into the spectrophotometer and start recording using the kinetic setup described above.

[1] = system: human acute lymphoblastic leukemia line C.E.M.; conditions: Wolpert-DeFillippes et al. 1975; cited from earlier work

With `COc1cc2cc(c1Cl)N(C)C(=O)C[C@H](OC(=O)[C@H](C)N(C)C(=O)CCCCCN1C(=O)C=CC1=O)[C@]1(C)OC1[C@H](C)[C@@H]1C[C@@](O)(NC(=O)O1)[C@H](OC)/C=C/C=C(\C)C2` (stereo partly drawn) [3AA-MDC, N2′-deacetyl-N2′-(6-maleimido-1-oxo-hexyl)-maytansine] the “inhibition of tubulin polymerization compared with the PBS buffer” value (tubulin) was “more significantly inhibited” and the “inhibition of tubulin polymerization” value (tubulin; Example 7, 200 nM stock, FIG. 1) was “more significantly inhibited”.

For `COc1cc2cc(c1Cl)N(C)C(=O)C[C@H](OC(=O)[C@H](C)N(C)C(=O)CCSC1CC(=O)N(CC3CCC(C(=O)NCCCC[C@H](N)C(=O)O)CC3)C1=O)[C@]1(C)O[C@H]1[C@H](C)[C@@H]1C[C@@](O)(NC(=O)O1)[C@H](OC)/C=C/C=C(\C)C2` (stereo partly drawn) [Lys-mcc-MDC], the “inhibition of tubulin polymerization compared with the PBS buffer” value (tubulin) was “more significantly inhibited”.

For `COc1cc2cc(c1Cl)N(C)C(=O)C[C@H](OC(=O)[C@H](C)N(C)C(C)=O)[C@]1(C)O[C@H]1[C@H](C)[C@@H]1C[C@@](O)(NC(=O)O1)[C@H](OC)/C=C/C=C(\C)C2` [Maytansine], the “inhibitory concentration, as low as” value [1] is listed as 10^−7 µg/mL.

For `COC(=O)Nc1nc2ccc(C(=O)c3cccs3)cc2[nH]1` [Nocodazole], the “relative activity of tubulin polymerization, decreased” value (tubulin; Example 7, 100 μM stock) was 2.5 fold.

With `CC(=O)O[C@H]1C(=O)[C@@]2(C)[C@H]([C@H](OC(=O)c3ccccc3)[C@]3(O)C[C@H](OC(=O)[C@H](O)[C@@H](NC(=O)c4ccccc4)c4ccccc4)C(C)=C1C3(C)C)[C@]1(OC(C)=O)CO[C@@H]1C[C@@H]2O` [Paclitaxel] the “relative activity of tubulin polymerization, enhanced” value (tubulin; Example 7, 100 μM stock) was “about 3 fold”.
